Reference: article PMC8355244, “A fragment-based approach identifies an allosteric pocket that impacts malate dehydrogenase activity” (Communications Biology, 2021)
“And” between values parts separate entries of the source, which are not always exact repeats. Equal values may be shown once.

Biological target: T1, PfMDH (Plasmodium falciparum, UniProt Q6VVP7)
T1 construct: The full-length WT PfMDH gene was cloned into pETM-13; made in house; host or cells: E. coli Rosetta 2 (DE3) pLysS
Test: Thermal shift assay (TSA)
Type: binding
Details: for TSA melting curve raw signal: triplicate columns; for TSA melting curve raw fluorescence signal: three replicate columns
Procedure: The TSA experiment was conducted in a BioRad CSX 96 (Biorad). Each reaction consisted of 1 mM of compound (100 mM stock in 100% (v/v) DMSO) and 10 μM PfMDH in 100 mM Na–phosphate buffer pH 7.4, 400 mM NaCl, and 10× Sypro Orange (Invitrogen) for a total volume of 100 μl. Control experiments were performed with 1% (v/v) DMSO. Inflection points were determined using BioRad CFX96™ control software. Generally, a temperature increase of over 1 °C is interpreted as a result of the stabilization of the protein-ligand interaction. On the contrary, a negative shift is considered a destabilization caused by the fragment.

T1 sequence (Q6VVP7 entry or part of it): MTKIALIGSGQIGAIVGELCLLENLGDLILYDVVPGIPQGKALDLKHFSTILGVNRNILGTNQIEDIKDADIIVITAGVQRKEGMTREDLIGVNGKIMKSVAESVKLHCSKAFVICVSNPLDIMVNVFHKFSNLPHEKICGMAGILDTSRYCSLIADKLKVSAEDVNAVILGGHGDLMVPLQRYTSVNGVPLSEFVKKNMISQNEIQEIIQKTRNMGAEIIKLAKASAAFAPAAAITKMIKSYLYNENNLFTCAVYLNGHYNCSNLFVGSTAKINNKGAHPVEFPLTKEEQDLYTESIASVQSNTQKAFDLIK

Cc1ccc(-c2csc(N)n2)cc1C [compound 5a]
ΔTm at 1000 µM (1 mM compound vs DMSO control): -4 °C
Tm (1 mM compound, 10 μM PfMDH, DMSO control Tm 58): 54.0 ± 0.2 °C
TSA melting curve raw signal (Temperature 25): 4361,22691625664 and 4136,47480077282
TSA melting curve raw signal (Temperature 28.5): 4004,87351225735 and 4183,98281996697 and 3977,18518163549
TSA melting curve raw signal (Temperature 29): 3986,17580138025 and 4159,213140841 and 3954,9246822172
TSA melting curve raw signal (Temperature 29.5): 3965,52273011401 and 4133,77316232738 and 3931,4868089647
TSA melting curve raw signal (Temperature 30): 3942,69196918976 and 4107,074098257 and 3906,46894255822
TSA melting curve raw signal (Temperature 30.5): 3918,20361111847 and 4079,7505229192 and 3880,66961233132
TSA melting curve raw signal (Temperature 31): 3892,85755253156 and 4052,78803951145 and 3854,85757088369
TSA melting curve raw signal (Temperature 31.5): 3868,35453137919 and 4026,78761104422 and 3830,51973110108
TSA melting curve raw signal (Temperature 32): 3846,14582452398 and 4002,89304325356 and 3808,96381740298
TSA melting curve raw signal (Temperature 32.5): 3827,35535230328 and 3981,88234223881 and 3791,26035282333
TSA melting curve raw signal (Temperature 33): 3812,58320085949 and 3964,3028642829 and 3777,54515038218
TSA melting curve raw signal (Temperature 33.5): 3801,69756150235 and 3949,2862317403 and 3767,92816787175
TSA melting curve raw signal (Temperature 34): 3794,14835836044 and 3937,14669832695 and 3761,78012801461
TSA melting curve raw signal (Temperature 34.5): 3789,41768425867 and 3927,49825494442 and 3758,75347546959
TSA melting curve raw signal (Temperature 35): 3787,20107392869 and 3920,20996880984 and 3758,62073564665
TSA melting curve raw signal (Temperature 35.5): 3787,42445071158 and 3914,62343444524 and 3761,24267883563
TSA melting curve raw signal (Temperature 36): 3789,87806432584 and 3911,1710367624 and 3766,28559252083
TSA melting curve raw signal (Temperature 36.5): 3794,85229304264 and 3909,49204056619 and 3773,84282790235
TSA melting curve raw signal (Temperature 37): 3802,25424487634 and 3909,25385384206 and 3783,72084315967
TSA melting curve raw signal (Temperature 37.5): 3812,04395610452 and 3910,368484837 and 3795,67572672777
TSA melting curve raw signal (Temperature 38): 3823,44040340727 and 3913,02621291175 and 3809,89581343172
TSA melting curve raw signal (Temperature 38.5): 3837,03387753428 and 3917,20362777738 and 3826,4956570889
TSA melting curve raw signal (Temperature 39): 3852,32039847376 and 3922,75702566821 and 3845,46925064995
TSA melting curve raw signal (Temperature 39.5): 3869,53236426586 and 3930,26334549594 and 3867,32940969988
TSA melting curve raw signal (Temperature 40): 3888,57436192082 and 3939,63549689652 and 3891,99828571263
TSA melting curve raw signal (Temperature 40.5): 3909,9422248531 and 3951,08452102982 and 3919,26474950283
TSA melting curve raw signal (Temperature 41): 3933,37089433234 and 3964,6560667334 and 3949,14976176316
TSA melting curve raw signal (Temperature 41.5): 3959,61189650686 and 3980,53295877896 and 3981,80921424824
TSA melting curve raw signal (Temperature 42): 3988,71833711846 and 3998,73387424263 and 4016,77538143681
TSA melting curve raw signal (Temperature 42.5): 4021,21607007206 and 4019,84430210471 and 4054,60967755587
TSA melting curve raw signal (Temperature 43): 4057,66089779623 and 4044,0111947974 and 4095,39361771176
TSA melting curve raw signal (Temperature 43.5): 4098,50799079596 and 4071,35680793258 and 4139,49703067488
TSA melting curve raw signal (Temperature 44): 4143,7029279742 and 4102,93490558282 and 4187,23267299696
TSA melting curve raw signal (Temperature 44.5): 4193,76415817757 and 4139,12758979339
TSA melting curve raw fluorescence signal (Temperature 73.5): 6299,79889324093 and 6231,78067625527 and 6109,60097267495
TSA melting curve raw fluorescence signal (Temperature 74): 6263,77685489112 and 6199,60301810331 and 6079,58574419186
TSA melting curve raw fluorescence signal (Temperature 74.5): 6227,81230039343 and 6168,07294306546 and 6050,3648537714
